{
  "source": "patent US8293786B2",
  "about": "(Alltranz Inc., priority 2007, dated 2012)",
  "system": "human abdominal skin",
  "test": "In vitro human skin permeation and skin disposition, flow-through diffusion cells (Examples 2, 2A, 2B)",
  "assay_type": "in vitro ADME",
  "settings": "for Flux enhancement: total cannabidiol versus cannabidiol",
  "how_it_was_run": "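Dermatomed (~200 μm) frozen human abdominal skin was mounted in flow-through cells at 32° C (0.95 cm^2), stratum corneum to donor. Donors were 0.10 mL 45:4:1 PG:H2O:IPM solution or 50 μL gel; receiver was 40% PEG 400 (HEPES-Hanks pH 7.4 or aqueous) with gentamicin at 0.8 mL/h. Samples were taken every 3 h for 24-42 h; skin accumulation was expressed as μmol/g wet tissue.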",
  "key": {"[1]": {"settings": "Table 19, gel formulation, 40% aqueous PEG 400 receiver fluid, as applied compound (CBD or intact prodrug)"}, "[2]": {"settings": "Table 19, gel formulation, 40% aqueous PEG 400 receiver fluid, mono-prodrug (ALL00150) from applied di-prodrug"}, "[3]": {"settings": "Table 19, gel formulation, 40% aqueous PEG 400 receiver fluid, prodrug applied, as total cannabidiol equivalents"}, "[4]": {"settings": "Table 18, 90:8:2 PG:H2O:IPM donor solution, 40% aqueous PEG 400 receiver fluid, CBD from applied prodrug"}, "[5]": {"settings": "Table 18, 90:8:2 PG:H2O:IPM donor solution, 40% aqueous PEG 400 receiver fluid, mono-prodrug from applied di-prodrug"}, "[6]": {"settings": "Table 18, 90:8:2 PG:H2O:IPM donor solution, 40% aqueous PEG 400 receiver fluid, prodrug applied, as total cannabidiol equivalents"}, "[7]": {"settings": "Table 16, 90:8:2 PG:H2O:IPM donor solution, 60/40 Hanks'/PEG 400 receiver fluid, as applied compound (CBD or intact prodrug)"}, "[8]": {"settings": "Table 17, 90:8:2 PG:H2O:IPM donor solution, 40% aqueous PEG 400 receiver fluid, as applied compound (CBD or intact prodrug)"}, "[9]": {"settings": "Table 18, 90:8:2 PG:H2O:IPM donor solution, 40% aqueous PEG 400 receiver fluid, as applied compound (CBD or intact prodrug)"}, "[10]": {"settings": "Table 21, gel formulation, 40% aqueous PEG 400 receiver fluid, as applied compound (CBD or intact prodrug)"}, "[11]": {"settings": "Table 23, gel formulation, 40% aqueous PEG 400 receiver fluid, as applied compound (CBD or intact prodrug)"}},
  "data": [
    {"smiles": "C=C(C)[C@@H]1CCC(C)=C[C@H]1c1c(OC(=O)CCN(C)C)cc(CCCCC)cc1OC(=O)CCN(C)C", "note": "[ALL00101, CBD bis(3-(dimethylamino)propionate)]", "values": [
      {"measurement": "24 h skin conc", "setting": "Table 19, gel formulation, 40% aqueous PEG 400 receiver fluid, CBD from applied prodrug", "result": "13.2 ± 10.4", "unit": "µmol/g"},
      {"measurement": "24 h skin conc", "setting": "[1]", "result": "0.8 ± 0.6", "unit": "µmol/g"},
      {"measurement": "24 h cumulative amt", "setting": "[2]", "result": "8.4 ± 1.3", "unit": "nmol"},
      {"measurement": "24 h skin conc", "setting": "[2]", "result": "34.7 ± 27.7", "unit": "µmol/g"},
      {"measurement": "Flux", "setting": "[2]", "result": "0.4 ± 0.03", "unit": "nmol/cm^2/h"},
      {"measurement": "Lag time", "setting": "[2]", "result": "2.9 ± 1.9", "unit": "h"},
      {"measurement": "24 h cumulative amt", "setting": "[3]", "result": "8.4 ± 1.3", "unit": "nmol"},
      {"measurement": "24 h skin conc", "setting": "[3]", "result": "48.7 ± 38.6", "unit": "µmol/g"},
      {"measurement": "Flux", "setting": "[3]", "result": "0.4 ± 0.03", "unit": "nmol/cm^2/h"},
      {"measurement": "Lag time", "setting": "[3]", "result": "2.9 ± 1.9", "unit": "h"},
      {"measurement": "Flux enhancement", "setting": "Table 19, gel formulation, 40% aqueous PEG 400 receiver fluid", "result": 0.52},
      {"measurement": "detected in the skin as", "setting": "in gel formulation", "result": "trace small amounts of intact prodrug but mostly as mono-substituted prodrug, ALL00150, and cannabidiol"},
      {"measurement": "flux compared to cannabidiol", "setting": "in gel formulation", "result": "did not increase the flux"},
      {"measurement": "lag time compared to cannabidiol", "setting": "in gel formulation", "result": "decreased"},
      {"measurement": "permeated through the skin as", "setting": "in gel formulation", "result": "mono-substituted prodrug (ALL00150) only"},
      {"measurement": "total skin concentrations compared to cannabidiol", "setting": "in gel formulation", "result": "higher"}
    ]},
    {"smiles": "C=C(C)C1CCC(C)=CC1c1c(OC(=O)CN(C)C)cc(CCCCC)cc1OC(=O)CN(C)C", "note": "(stereo not drawn) [ALL00105, CBD bis(N,N-dimethylglycinate)]", "values": [
      {"measurement": "30 h cumulative amt", "setting": "[4]", "result": "6.9 ± 0.0", "unit": "nmol"},
      {"measurement": "30 h skin conc", "setting": "[4]", "result": "30.0 ± 0.0", "unit": "µmol/g"},
      {"measurement": "Flux", "setting": "[4]", "result": "0.6 ± 0.0", "unit": "nmol/cm^2/h"},
      {"measurement": "Lag time", "setting": "[4]", "result": "18.6 ± 0.0", "unit": "h"},
      {"measurement": "30 h cumulative amt", "setting": "[5]", "result": "15.4 ± 0.0", "unit": "nmol"},
      {"measurement": "30 h skin conc", "setting": "[5]", "result": "40.2 ± 0.0", "unit": "µmol/g"},
      {"measurement": "Flux", "setting": "[5]", "result": "1.0 ± 0.0", "unit": "nmol/cm^2/h"},
      {"measurement": "Lag time", "setting": "[5]", "result": "13.0 ± 0.0", "unit": "h"},
      {"measurement": "30 h cumulative amt", "setting": "[6]", "result": "22.3 ± 0.0", "unit": "nmol"},
      {"measurement": "30 h skin conc", "setting": "[6]", "result": "70.2 ± 0.0", "unit": "µmol/g"},
      {"measurement": "Flux", "setting": "[6]", "result": "1.6 ± 0.0", "unit": "nmol/cm^2/h"},
      {"measurement": "Lag time", "setting": "[6]", "result": "15.2 ± 0.0", "unit": "h"},
      {"measurement": "Flux enhancement", "setting": "Table 18, 90:8:2 PG:H2O:IPM donor solution, 40% aqueous PEG 400 receiver fluid", "result": 0.19},
      {"measurement": "detected in the skin as", "setting": "in donor solution", "result": "mono-substituted prodrug, ALL00148, and cannabidiol"},
      {"measurement": "flux compared to cannabidiol", "setting": "in donor solution", "result": "did not increase the flux"},
      {"measurement": "lag time compared to cannabidiol", "setting": "in donor solution", "result": "not decreased"},
      {"measurement": "permeated through the skin as", "setting": "in donor solution", "result": "mono-substituted prodrug (ALL00148) and cannabidiol"},
      {"measurement": "total skin concentrations compared to cannabidiol", "setting": "in donor solution", "result": "higher"}
    ]},
    {"smiles": "C=C(C)[C@@H]1CCC(C)=C[C@H]1c1c(O)cc(CCCCC)cc1O", "note": "[cannabidiol, reference compound]", "values": [
      {"measurement": "42 h cumulative amt", "setting": "[7]", "result": "154.4 ± 39.5", "unit": "nmol"},
      {"measurement": "42 h skin conc", "setting": "[7]", "result": "19.0 ± 12.8", "unit": "µmol/g"},
      {"measurement": "Flux", "setting": "[7]", "result": "6.5 ± 0.7", "unit": "nmol/cm^2/h"},
      {"measurement": "30 h cumulative amt", "setting": "[8]", "result": "51.6 ± 9.1", "unit": "nmol"},
      {"measurement": "30 h skin conc", "setting": "[8]", "result": "10.5 ± 6.5", "unit": "µmol/g"},
      {"measurement": "Flux", "setting": "[8]", "result": "3.9 ± 0.2", "unit": "nmol/cm^2/h"},
      {"measurement": "30 h cumulative amt", "setting": "[9]", "result": "148.6 ± 54.0", "unit": "nmol"},
      {"measurement": "30 h skin conc", "setting": "[9]", "result": "21.2 ± 4.8", "unit": "µmol/g"},
      {"measurement": "Flux", "setting": "[9]", "result": "8.2 ± 2.6", "unit": "nmol/cm^2/h"},
      {"measurement": "24 h cumulative amt", "setting": "[1]", "result": "12.3 ± 8.1", "unit": "nmol"},
      {"measurement": "24 h skin conc", "setting": "[1]", "result": "9.0 ± 2.2", "unit": "µmol/g"},
      {"measurement": "Flux", "setting": "[1]", "result": "0.8 ± 0.4", "unit": "nmol/cm^2/h"},
      {"measurement": "Lag time", "setting": "[1]", "result": "8.5 ± 2.1", "unit": "h"},
      {"measurement": "24 h cumulative amt", "setting": "[10]", "result": "6.5 ± 3.8", "unit": "nmol"},
      {"measurement": "24 h skin conc", "setting": "[10]", "result": "15.6 ± 4.2", "unit": "µmol/g"},
      {"measurement": "Flux", "setting": "[10]", "result": "0.4 ± 0.2", "unit": "nmol/cm^2/h"},
      {"measurement": "Lag time", "setting": "[10]", "result": "5.3 ± 1.7", "unit": "h"},
      {"measurement": "24 h skin conc", "setting": "Table 22, anhydrous gel formulation, 40% aqueous PEG 400 receiver fluid, as applied compound (CBD or intact prodrug)", "result": "3.3 ± 1.3", "unit": "µmol/g"},
      {"measurement": "24 h cumulative amt", "setting": "[11]", "result": 3.0, "unit": "nmol"},
      {"measurement": "24 h skin conc", "setting": "[11]", "result": "27.7 ± 24.6", "unit": "µmol/g"},
      {"measurement": "Flux", "setting": "[11]", "result": 0.29, "unit": "nmol/cm^2/h"},
      {"measurement": "Lag time", "setting": "[11]", "result": 12.8, "unit": "h"},
      {"measurement": "concentrations in the skin, anhydrous gel formulation compared to the ethanol based gel formulation", "setting": "anhydrous gel versus ethanol based gel", "result": "much lower"}
    ]}
  ]
}
